Measurements reported in patent US9796733B2, “Imidazo-pyrazine derivatives useful as soluble guanylate cyclase activators” (Merck Sharp & Dohme Corp., priority 2014, dated 2017).

Target: T1, sGC α1/β1 heterodimer (Homo sapiens, UniProt Q02108+Q02153)
T1 construct: expressed in transfected cells; host or cells: CHO-K1 (clone #7, CHO-K1/sGC)
T1 sequence (Q02108 1-690): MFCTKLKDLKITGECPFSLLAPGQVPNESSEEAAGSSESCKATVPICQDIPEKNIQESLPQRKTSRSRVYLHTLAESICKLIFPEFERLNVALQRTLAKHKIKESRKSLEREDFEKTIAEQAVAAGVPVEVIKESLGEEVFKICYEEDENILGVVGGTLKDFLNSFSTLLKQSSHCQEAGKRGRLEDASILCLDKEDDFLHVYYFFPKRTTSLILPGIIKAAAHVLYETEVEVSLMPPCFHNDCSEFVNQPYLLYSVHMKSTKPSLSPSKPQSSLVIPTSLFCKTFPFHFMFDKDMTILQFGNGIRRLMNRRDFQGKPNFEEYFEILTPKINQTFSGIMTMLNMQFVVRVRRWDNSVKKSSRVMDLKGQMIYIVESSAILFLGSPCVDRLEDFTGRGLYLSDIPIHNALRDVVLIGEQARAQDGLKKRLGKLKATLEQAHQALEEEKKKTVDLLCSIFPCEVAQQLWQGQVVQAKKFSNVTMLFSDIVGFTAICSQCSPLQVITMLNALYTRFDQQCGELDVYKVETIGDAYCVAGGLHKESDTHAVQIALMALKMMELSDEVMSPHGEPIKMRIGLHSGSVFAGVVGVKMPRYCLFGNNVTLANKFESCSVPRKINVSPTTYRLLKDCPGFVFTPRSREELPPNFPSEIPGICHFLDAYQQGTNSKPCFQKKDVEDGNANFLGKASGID
T1 sequence (Q02153 1-619): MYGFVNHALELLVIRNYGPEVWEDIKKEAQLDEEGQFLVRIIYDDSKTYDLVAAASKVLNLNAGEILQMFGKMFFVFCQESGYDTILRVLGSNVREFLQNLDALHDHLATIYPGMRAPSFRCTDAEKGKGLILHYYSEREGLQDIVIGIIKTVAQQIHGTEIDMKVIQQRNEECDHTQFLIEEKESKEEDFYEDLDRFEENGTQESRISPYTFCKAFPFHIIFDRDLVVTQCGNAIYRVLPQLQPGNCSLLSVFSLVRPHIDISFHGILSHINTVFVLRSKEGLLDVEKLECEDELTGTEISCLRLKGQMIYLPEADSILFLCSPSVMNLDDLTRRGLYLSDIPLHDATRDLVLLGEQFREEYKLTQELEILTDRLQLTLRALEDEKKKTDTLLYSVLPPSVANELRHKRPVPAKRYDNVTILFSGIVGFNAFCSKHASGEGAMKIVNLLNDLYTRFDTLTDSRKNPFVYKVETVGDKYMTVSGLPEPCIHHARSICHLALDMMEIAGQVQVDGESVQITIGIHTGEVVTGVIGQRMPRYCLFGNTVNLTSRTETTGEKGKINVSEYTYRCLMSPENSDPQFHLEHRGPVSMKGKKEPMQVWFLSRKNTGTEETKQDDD
Experiment: Cell-based sGC functional assay (CASA assay): cGMP generation in CHO-K1/sGC cells, HTRF detection
Conditions: for Emax: CHO-K1, percent activation relative to standard Compound A in CHO-K1/sGC cells, read-out: % Act.; for EC50: inflection point (IP) of cGMP generation in CHO-K1/sGC cells, 4P fit, activity expressed as percentage of Compound A
Text: Biological Assay 1: Cell-Based sGC Functional Assay (CASA Assay)
sGC is a heme-containing enzyme that converts GTP to secondary messenger cGMP. Increases in cGMP levels affect several physiological processes including vasorelaxation through multiple downstream pathways. […] Heme-dependent activators (HDAs) preferentially activate sGC containing a ferrous heme group. To determine the effect of sGC activators on enzyme activity, the CASA assay was developed to monitor the generation of cGMP in a cell line that stably expresses the heterodimeric sGC protein.
A CHO-K1 cell line stably expressing the sGC α1/β1 heterodimer was generated using a standard transfection protocol. CHO-K1 cells were transfected with plasmids pIREShyghsGCal and pIRESneo-hsGCβ1 simultaneously using FUGENE reagent. Clones that stably express both subunits were selected with hygromycin and neomycin for 2 weeks. Clone #7 was chosen for the assay and was designated CHO-K1/sGC. CHO-K1/sGC cells were maintained in F-K12 medium containing 10% heat-inactivated Fetal Bovine Serum (FBS), 100 μg/mL penicillin/streptomycin, 0.5 mg/mL hygromycin and 0.25 mg/mL G418. The cells were then cryopreserved in LN2. On the day of the assay, cells thawed and resuspended in EBSS Assay Buffer (Sigma, E3024) supplemented with 5 mM MgCl2, 10 mM HEPES (4-(2-hydroxyethyl)piperazine-1-ethanesulfonic acid) and 0.05% BSA (bovine serum albumin) (EAB) and cell density was then adjusted to 4×10^5/mL with EAR IBMX (3-isobutyl-1-methylxanthin, 0.5 mM) was added to inhibit degradation of cGMP. Compounds were diluted from DMSO stock solutions and added to the assay at a final DMSO concentration of 2.5%. Cells were incubated with compounds in the presence and absence of 1 μM of Diethylenetriamine/nitric oxide adduct (DETA-NO; Sigma, 17018) for 1 hr at 37° C. At the end of the incubation period, the reaction was terminated and the cells were lysed with the detection reagents from Cisbio Kits. The level of intracellular cGMP was determined using an HTRF-based assay kit (CisBio, 62GM2PEC), which detects the displacement of a fluorescence labeled cGMP from its specific antibody. The cGMP produced by test compounds was directly compared to the maximum cGMP production (this value was set to equal 100% activation.) of the published sGC-HDA Compound A:
[drawing 597] (Example 1 in WO 2010/065275, published Jun. 10, 2010). The test compounds' activities were then expressed as a percentage of Compound A, the standard in every experiment. This percent activation was calculated either in the presence or absence of DETA-NO which was then plotted. IP and maximum fold induction was derived using ADA analysis software for 4P fit.
The compounds in the Examples of the instant invention had inflection points (IP) less than or equal to 10 μM and more particularly less than or equal to about 1 μM.

| Structure (SMILES) | Emax | EC50 | % Act. (percent activation relative to standard Compound A in CHO-K1/sGC cells) |
| --- | --- | --- | --- |
| CC1(c2ccc(F)cc2)C(=O)Nc2nc(-c3cn4ccnc4c(CCC(F)(F)C(F)(F)F)n3)nc(N3CCN(S(C)(=O)=O)CC3)c21 (centres unmarked) [Example 299A, 5-(4-fluorophenyl)-5-methyl-4-(4-(methylsulfonyl)piperazin-1-yl)-2-(8-(3,3,4,4,4-pentafluorobutyl)imidazo[1,2-a]pyrazin-6-yl)-5H-pyrrolo[2,3-d]pyrimidin-6(7H)-one] | 114% | 624 nM | – |
| CCc1ccc(C2(C)C(=O)Nc3nc(-c4cn5ccnc5c(CCC(F)(F)C(F)(F)F)n4)nc(N)c32)nc1 (centres unmarked) [Example 242B, 4-amino-5-(5-ethylpyridin-2-yl)-5-methyl-2-(8-(3,3,4,4,4-pentafluorobutyl)imidazo [1,2-a]pyrazin-6-yl)-5H-pyrrolo[2,3-d]pyrimidin-6(7H)-one] | 133% | 127 nM | – |
| Cc1cnc2c(Cc3ccc(F)cc3)nc(-c3nc(N)c4c(n3)NC(=O)C4(C)c3ccc(F)cn3)cn12 (centres unmarked) [Example 163B, 4-amino-2-(8-(4-fluorobenzyl)-3-methylimidazo[1,2-a]pyrazin-6-yl)-5-(5-fluoropyridin-2-yl)-5-methyl-5H-pyrrolo[2,3-d]pyrimidin-6(7H)-one] | 84% | 230 nM | – |
| CC1(c2ccc(Cl)cc2)C(=O)Nc2nc(-c3cn4ccnc4c(Cc4ccc(F)c(F)c4)n3)nc(N)c21 (centres unmarked) [Example 97A, 4-amino-5-(4-chlorophenyl)-2-(8-(3,4-difluorobenzyl)imidazo[1,2-a]pyrazin-6-yl)-5-methyl-5H-pyrrolo[2,3-d]pyrimidin-6(7H)-one] | 145% | 5 nM | – |
| CC1(c2ccc(Cl)cn2)C(=O)Nc2nc(-c3cn4c(N)cnc4c(CCC(F)(F)C(F)(F)F)n3)nc(N)c21 (centres unmarked) [Example 269A, 4-amino-2-(3-amino-8-(3,3,4,4,4-pentafluorobutyl)imidazo[1,2-a]pyrazin-6-yl)-5-(5-chloropyridin-2-yl)-5-methyl-5H-pyrrolo[2,3-d]pyrimidin-6(7H)-one] | 198% | 5090 nM | – |
| CCC1(CC)C(=O)Nc2nc(-c3cn4ccnc4c(Cc4ccccc4)n3)nc(N)c21 [Example 79, 4-amino-2-(8-benzylimidazo[1,2-a]pyrazin-6-yl)-5,5-diethyl-5H-pyrrolo[2,3-d]pyrimidin-6(7H)-one] | 112% | 36 nM | – |
| Nc1nc(-c2cn3ccnc3c(CCC(F)(F)C(F)(F)F)n2)nc2c1C(C(=O)NC1CC1)(C1CC1)C(=O)N2 (single isomer, unassigned) [Example 61B, 4-amino-N,5-dicyclopropyl-6-oxo-2-(8-(3,3,4,4,4-pentafluorobutyl)imidazo[1,2-a]pyrazin-6-yl)-6,7-dihydro-5H-pyrrolo[2,3-d]pyrimidine-5-carboxamide] | – | 450 nM | 83% |
| CCCc1nc(-c2nc(N)c3c(n2)NC(=O)C3(C)c2ccc(F)cc2)cn2ccnc12 (centres unmarked) [Example 17A, 4-amino-5-(4-fluorophenyl)-5-methyl-2-(8-propylimidazo[1,2-a]pyrazin-6-yl)-5H-pyrrolo[2,3-d]pyrimidin-6(7H)-one] | 124% | 157 nM | – |
| CC1(F)CN(c2nc(-c3cn4ccnc4cn3)nc3c2C(C)(c2ccc(Cl)cc2)C(=O)N3)C1 (centres unmarked) [Example 284A, 5-(4-chlorophenyl)-4-(3-fluoro-3-methylazetidin-1-yl)-2-(imidazo[1,2-a]pyrazin-6-yl)-5-methyl-5H-pyrrolo[2,3-d]pyrimidin-6(7H)-one] | 120% | 102 nM | – |
| CC1(c2ccccc2)C(=O)Nc2nc(-c3cn4c(Cl)cnc4c(CCC(F)(F)C(F)(F)F)n3)nc(N)c21 (centres unmarked) [Example 256B, 4-amino-2-(3-chloro-8-(3,3,4,4,4-pentafluorobutyl)imidazo [1,2-a]pyrazin-6-yl)-5-methyl-5-phenyl-5H-pyrrolo[2,3-d]pyrimidin-6(7H)-one] | 86% | 24 nM | – |
| CCC1(C)C(=O)Nc2nc(-c3cn4ccnc4c(Cc4ccccc4)n3)nc(N)c21 (centres unmarked) [Example 84A, 4-amino-2-(8-benzylimidazo[1,2-a]pyrazin-6-yl)-5-ethyl-5-methyl-5H-pyrrolo[2,3-d]pyrimidin-6(7H)-one] | 90% | 58 nM | – |
| CC(C)(C)CCc1nc(-c2nc(N)c3c(n2)NC(=O)C3(C)c2ccc(Cl)cc2)cn2ccnc12 (centres unmarked) [Example 120A, 4-amino-5-(4-chlorophenyl)-2-(8-(3,3-dimethylbutyl)imidazo[1,2-a]pyrazin-6-yl)-5-methyl-5H-pyrrolo[2,3-d]pyrimidin-6(7H)-one] | 112% | 31 nM | – |
| Nc1nc(-c2cn3ccnc3c(CCC(F)(F)F)n2)nc2c1C(c1ccc(Br)cc1)(C1CC1)C(=O)N2 (centres unmarked) [Example 200A, 4-amino-5-(4-bromophenyl)-5-cyclopropyl-2-(8-(3,3,3-trifluoropropyl)imidazo[1,2-a]pyrazin-6-yl)-5H-pyrrolo[2,3-d]pyrimidin-6(7H)-one] | 96% | 457 nM | – |
| Nc1nc(-c2cn3ccnc3c(CCCC(F)(F)F)n2)nc2c1C(c1cccc(C(F)(F)F)n1)(C1CC1)C(=O)N2 (single isomer, unassigned) [Example 368B, 4-amino-5-cyclopropyl-2-(8-(4,4,4-trifluorobutyl)imidazo[1,2-a]pyrazin-6-yl)-5-(6-(trifluoromethyl)pyridin-2-yl)-5H-pyrrolo[2,3-d]pyrimidin-6(7H)-one] | 151% | 148 nM | – |
| Cc1nc2c(CCC(F)(F)C(F)(F)F)nc(-c3nc(N)c4c(n3)NC(=O)C4(C)c3ccc(F)cc3)cn2c1Br (centres unmarked) [Example 266A, 4-amino-2-(3-bromo-2-methyl-8-(3,3,4,4,4-pentafluorobutyl)imidazo[1,2-a]pyrazin-6-yl)-5-(4-fluorophenyl)-5-methyl-5H-pyrrolo[2,3-d]pyrimidin-6(7H)-one] | 101% | 141 nM | – |
| CCCCc1nc(-c2nc(N)c3c(n2)NC(=O)C3(c2cnc(C)cn2)C2CC2)cn2ccnc12 (single isomer, unassigned) [Example 352B, 4-amino-2-(8-butylimidazo[1,2-a]pyrazin-6-yl)-5-cyclopropyl-5-(5-methylpyrazin-2-yl)-5H-pyrrolo[2,3-d]pyrimidin-6(7H)-one] | 96% | 302 nM | – |
